Test [1] addresses Avi-humanTEAD4 217-434 / Cy5 labeled humanYAP 60-100 (Homo sapiens (Human), UniProt Q15561). The test can be described thus: TR-FRET YAP-TEAD4 in-vitro biochemical assay. It counts as binding. Conditions: 1 nM Avi-humanTEAD4 217-434, 20 nM Cy5-humanYAP 60-100, 1 h room temperature. On the technique in general: TR-FRET usually uses a lanthanide donor and a delayed reading to cut background.

In test [2] the test system is NCI-H2052 Tet-On shYAP_2371 pLenti6 MCAT_Luc cells (YAP-dependent transcription). The test is described as follows: YAP reporter gene activity assay (MCAT-luciferase), NCI-H2052. The class given is cell-based. Conditions: Homo sapiens, NCI-H2052, 24 h, 24 hours incubation, BrightGlo luminescence. The method, then:
(§1) This cell line was also transduced with a Tet-pLKO-puro-based construct mediating tetracycline-inducible expression of a short-hairpin directed against the 3′UTR of the YAP1 mRNA (5′-[…]-3′).
(§2) Stock solutions of compounds were prepared at a concentration of 10 mM in DMSO and stored at 4° C. Where necessary to afford a full dose-response curve, the stock solutions were pre-diluted in DMSO to 1'000-fold the desired reduced start concentration. On the day after cell seeding, eleven 2-fold serial dilutions of each compound were dispensed directly into the cell assay plates using a HP 300D non-contact Digital Dispenser (TECAN, Mannedorf, Switzerland). The final concentration of DMSO was normalized to 0.1% in all wells.
The ability of compounds to inhibit YAP-dependent transcription was assessed in NCI-H2052 Tet-On shYAP_2371 pLenti6 MCAT_Luc cells, while specificity (lack of unspecific inhibition of luciferase expression of activity) was assessed in MKN-45/Ubc-luc cells. […] Following incubation for 24 hours at 37° C., compound-mediated modulation of reporter-gene activity was quantified 5 min after addition of 20 μl BrightGlo (Promega, Cat #E2620), by measuring luminescence intensity on a multi-mode plate-reader (TECAN, Männedorf, Switzerland, Integration time 100 ms). For data analysis, the assay background value determined in wells containing medium, but no cells, was subtracted from all data points. Dose-dependent compound effects were expressed as % of vehicle-treated control (luminescence signal produced by cells receiving DMSO only) and IC50s calculated using a four-parametric fit model.

Test [3] has as its system NCI-H2052 Tet-On shYAP_2371 pLenti6 MCAT_Luc cells. The test can be described thus: Proliferation assay (resazurin), NCI-H2052. Conditions: Homo sapiens, NCI-H2052, 72 h, 72 hours incubation. The class given is cell-based. The method, then:
as §1, §2
(§3) The functional effect of compounds on cell proliferation was assessed using NCI-H2052 Tet-On shYAP_2371 pLenti6 MCAT_Luc and MKN-45/Ubc-luc cells by quantifying the reducing capacity of live cells using the redox indicator dye resazurin. […] For data analysis, the assay background value determined in wells containing medium, but no cells, was subtracted from all data points. […] The effect of a particular test compound concentration on cell proliferation/viability was expressed as percentage of day 0-corrected fluorescence reading obtained for cells treated with vehicle only (DMSO, final concentration 0.1%), which was set as 100%, whereas the fluorescence reading for wells containing medium only, but no cells, was set as −100%. Compound concentrations leading to half-maximal growth inhibition (GI50) were determined using standard four parameter curve fitting.
A general note: Resazurin is reduced to fluorescent resorufin, in cell work by metabolically active cells.

The test system of test [4] is MKN-45/Ubc-luc cells. The test is described as follows: Proliferation assay (resazurin), MKN-45. It counts as cell-based. Conditions: Homo sapiens, 72 hours incubation. The method, then: As a specificity control, MKN-45 cells were stably transduced with a Ubc-Luc reporter construct, in which constitutive expression of firefly luciferase is driven by the promoter of the ubiquitin C housekeeping gene.
as §2, §3

The test system of test [5] is MKN-45/Ubc-luc cells. The test is described as follows: Reporter gene specificity control (Ubc-luciferase), MKN-45. Conditions: Homo sapiens, MKN-45, 24 h, read-out: Reporter gene assay MKN-45 IC50 [μM], MKN-45/Ubc-luc cells (YAP deleted, specificity control), 24 hours incubation.

Sequence of Avi-humanTEAD4 217-434 / Cy5 labeled humanYAP 60-100 (Q15561 217-434): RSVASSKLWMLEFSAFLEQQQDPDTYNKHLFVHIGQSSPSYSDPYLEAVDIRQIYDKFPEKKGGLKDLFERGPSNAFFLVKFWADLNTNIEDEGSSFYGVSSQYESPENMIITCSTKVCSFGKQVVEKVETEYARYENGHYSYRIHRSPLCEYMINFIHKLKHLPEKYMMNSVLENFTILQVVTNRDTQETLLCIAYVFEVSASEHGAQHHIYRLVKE

Take `COc1ccc(C(N)=O)c(-c2c(Cl)ccc3c2C[C@@](CN)(c2cscn2)O3)c1F` (atropisomer, axis not shown) [Example 29, 2-((2R,4S)-2-(Aminomethyl)-5-chloro-2-(thiazol-4-yl)-2,3-dihydrobenzofuran-4-yl)-3-fluoro-4-methoxybenzamide]: the results for the IC50 (in test [1]; in test [2]; with MKN-45/Ubc-luc cells [5]) were 10 nM, 2000 nM and over 10 µM, respectively. In addition, the GI50 (as a rule, the concentration at which growth is held to half of that of the control) in test [3] is 1850 nM; in the test on MKN-45/Ubc-luc cells [4] it was over 10000 nM.

As for `NC[C@@]1(c2cccc3c2OC(F)(F)O3)Cc2c(ccc(Cl)c2-c2c(F)cccc2C(N)=O)O1` (atropisomer, axis not shown) [Example 30, 2-((2S,4S)-2-(aminomethyl)-5-chloro-2-(2,2-difluorobenzo[d][1,3]dioxol-4-yl)-2,3-dihydrobenzofuran-4-yl)-3-fluorobenzamide], the IC50 in test [1] was 143 nM; in test [2], 4770 nM; in the test with MKN-45/Ubc-luc cells [5], over 10 µM. Further, the figures for the GI50 (in test [3]; in the test with MKN-45/Ubc-luc cells [4]) were 6840 nM and over 10000 nM, respectively.

As for `COc1ccc(C(N)=O)c(-c2c(Cl)ccc3c2C[C@@](CN)(c2ccccc2F)O3)c1F` (atropisomer, axis not shown) [Example 31, 2-((2S,4S)-2-(Aminomethyl)-5-chloro-2-(2-fluorophenyl)-2,3-dihydrobenzofuran-4-yl)-3-fluoro-4-methoxybenzamide], the IC50 is 3 nM in test [1], 343 nM in test [2] and over 10 µM in the test with MKN-45/Ubc-luc cells [5]. For the same compound, the GI50 was 346 nM in test [3] and over 10000 nM with MKN-45/Ubc-luc cells [4].

In the case of `COc1ccc(C(N)=O)c(-c2c(Cl)c(F)cc3c2C[C@@](CN)(c2ccccc2)O3)c1F` (atropisomer, axis not shown) [Example 33, 2-((2S,4S)-2-(aminomethyl)-5-chloro-6-fluoro-2-phenyl-2,3-dihydrobenzofuran-4-yl)-3-fluoro-4-methoxybenzamide], the IC50 was 3 nM in test [1], 161 nM in test [2] and over 10 µM in the test on MKN-45/Ubc-luc cells [5]. Moreover, the GI50 was 161 nM in test [3] and over 10000 nM in the test on MKN-45/Ubc-luc cells [4].

Turning to `NC[C@@]1(c2ccccc2)Cc2c(cc(F)c(Cl)c2-c2c(C(N)=O)ccc(OC(F)F)c2F)O1` (atropisomer, axis not shown) [Example 35, 2-((2S,4S)-2-(aminomethyl)-5-chloro-6-fluoro-2-phenyl-2,3-dihydrobenzofuran-4-yl)-4-(difluoromethoxy)-3-fluorobenzamide], the IC50 in test [1] is 9 nM; in test [2] it was 276 nM; in the test with MKN-45/Ubc-luc cells [5], over 10 µM. Also, the GI50 in test [3] was 310 nM; in the test on MKN-45/Ubc-luc cells [4] it was over 10000 nM.

Regarding `COCCOc1ccc(C(N)=O)c(-c2c(Cl)c(F)cc3c2C[C@@](CN)(c2ccccc2)O3)c1F` (atropisomer, axis not shown) [Example 37, 2-((2S,4S)-2-(aminomethyl)-5-chloro-6-fluoro-2-phenyl-2,3-dihydrobenzofuran-4-yl)-3-fluoro-4-(2-methoxyethoxy)benzamide], the IC50 in test [1] was 2 nM; in test [2], 33 nM; in the test on MKN-45/Ubc-luc cells [5], over 10 µM. Besides, the GI50 in test [3] was 52 nM; with MKN-45/Ubc-luc cells [4] it was over 10000 nM.

Turning to `NC[C@@]1(c2ccccc2)Cc2c(cc(F)c(Cl)c2-c2c(C(N)=O)ccc(OCCO)c2F)O1` (atropisomer, axis not shown) [Example 38, 2-((2S,4S)-2-(aminomethyl)-5-chloro-6-fluoro-2-phenyl-2,3-dihydrobenzofuran-4-yl)-3-fluoro-4-(2-hydroxyethoxy)benzamide], the values for the IC50 (in test [1]; in test [2]; with MKN-45/Ubc-luc cells [5]) were 2 nM, 24 nM and over 10 µM, respectively. In addition, the concentration for 50% growth inhibition (GI50) in test [3] is 29 nM; in the test with MKN-45/Ubc-luc cells [4], over 10000 nM.

In the case of `NC[C@@]1(c2ccccc2)Cc2c(cc(F)c(Cl)c2-c2cc(SC(F)(F)CO)ccc2C(N)=O)O1` (atropisomer, axis not shown) [Example 39, 2-((2S,4R)-2-(aminomethyl)-5-chloro-6-fluoro-2-phenyl-2,3-dihydrobenzofuran-4-yl)-4-((1,1-difluoro-2-hydroxyethyl)thio)benzamide], the IC50 in test [1] is 102 nM; in test [2], 2150 nM; in the test with MKN-45/Ubc-luc cells [5], over 10 µM. Also, the concentration for 50% growth inhibition (GI50) in test [3] was 2830 nM; in the test on MKN-45/Ubc-luc cells [4], over 10000 nM.

`COc1ncc(C(N)=O)c(-c2c(Cl)c(F)cc3c2C[C@@](CN)(c2ccccc2)O3)c1F` (atropisomer, axis not shown) [Example 42, 4-((2S,4S)-2-(aminomethyl)-5-chloro-6-fluoro-2-phenyl-2,3-dihydrobenzofuran-4-yl)-5-fluoro-6-methoxynicotinamide]: the IC50 was 6 nM in test [1], 391 nM in test [2] and over 10 µM with MKN-45/Ubc-luc cells [5]. Further, the 50% growth inhibitory concentration (GI50) in test [3] came to 493 nM; in the test on MKN-45/Ubc-luc cells [4] it was 9400 nM.

As to `NC[C@@]1(c2ccccc2)Cc2c(cc(F)c(Cl)c2-c2c(C(N)=O)cnc(OCCO)c2F)O1` (atropisomer, axis not shown) [Example 43, 4-((2S,4S)-2-(Aminomethyl)-5-chloro-6-fluoro-2-phenyl-2,3-dihydrobenzofuran-4-yl)-5-fluoro-6-(2-hydroxyethoxy)nicotinamide], the IC50 in test [1] is 5 nM; in test [2], 47 nM; in the test with MKN-45/Ubc-luc cells [5] it was over 10 µM. Besides, the concentration for 50% growth inhibition (GI50) in test [3] is 94 nM; with MKN-45/Ubc-luc cells [4] it was over 10000 nM.

As for `CNC[C@@]1(c2ccccc2)Cc2c(cc(F)c(Cl)c2-c2c(C(N)=O)cnc(OCCOC)c2F)O1` (atropisomer, axis not shown) [Example 47, 4-((2S,4S)-5-Chloro-6-fluoro-2-((methylamino)methyl)-2-phenyl-2,3-dihydrobenzofuran-4-yl)-5-fluoro-6-(2-methoxyethoxy)nicotinamide], the values for the IC50 (in test [1]; in test [2]; with MKN-45/Ubc-luc cells [5]) were 4 nM, 50 nM and over 10 µM, respectively. For the same compound, the concentration for 50% growth inhibition (GI50) in test [3] is 35 nM; in the test on MKN-45/Ubc-luc cells [4], over 10000 nM.

On to `CNC[C@@]1(c2ccccc2)Cc2c(cc(F)c(Cl)c2-c2c(C(=O)NC)ccc(OCCO)c2F)O1` (atropisomer, axis not shown) [Example 51, 2-((2S,4S)-5-Chloro-6-fluoro-2-((methylamino)methyl)-2-phenyl-2,3-dihydrobenzofuran-4-yl)-3-fluoro-4-(2-hydroxyethoxy)-N-methylbenzamide], for which the IC50 in test [1] was 3 nM; in test [2] it was 62 nM; in the test on MKN-45/Ubc-luc cells [5] it was over 10 µM. In addition, the GI50 in test [3] is 71 nM; with MKN-45/Ubc-luc cells [4] it was over 10000 nM.

For `CNC[C@@]1(c2ccccc2)Cc2c(cc(F)c(Cl)c2-c2c(C(=O)NC)ccc(OC[C@H](C)O)c2F)O1` (atropisomer, axis not shown) [Example 52, 2-((2S,4S)-5-chloro-6-fluoro-2-((methylamino)methyl)-2-phenyl-2,3-dihydrobenzofuran-4-yl)-3-fluoro-4-((S)-2-hydroxypropoxy)-N-methylbenzamide], the IC50 in test [1] was 11 nM; in test [2] it was 109 nM; in the test with MKN-45/Ubc-luc cells [5], over 10 µM. The GI50 in test [3] was 174 nM; with MKN-45/Ubc-luc cells [4], over 10000 nM.

For the origin of these results see patent US12083101B2, “Biaryl derivatives as YAP/TAZ-TEAD protein-protein interaction inhibitors” (Novartis AG, priority 2020, dated 2024).
